Row | SMILES | melting point [°C]
1 | CCC(C)(CC)c1cc(NC(=O)c2c(OC)cccc2OC)on1 | 178
2 | CC(C)C1(Cc2ccco2)C(=O)NC(=O)NC1=O | 169
3 | CC(C)C(Br)C(=O)NC(N)=O (stereo not drawn) | 154
4 | FC(F)(F)c1cccnc1Br | 38
5 | CC(C)CC(C)(N)P(=O)(O)O (stereo not drawn) | 234 to 238
6 | FC(F)(F)C(F)(F)C(F)(F)F | -148
7 | CC(C)C(=O)Cl | -90
8 | CCSc1ccc2c(c1)N(CCCN1CCN(C)CC1)c1ccccc1S2 | 63
9 | Cc1cc2c(cc1C)C(=O)c1ccccc1C2=O | 211
10 | CS(=O)(=O)c1csc(C(=O)O)c1Cl | 234 to 236
11 | Cn1c(=O)c2c(ncn2CCO)n(C)c1=O | 158
12 | COC(=O)C(C#N)=C(NC(=O)c1ccccc1)SC | 129 to 131
13 | COc1ccc(N(CCCC(=O)O)C(=O)c2ccc(Cl)cc2)cc1 | 116
14 | NNC(=S)Nc1ccc(Cl)cc1Cl | 169
15 | C=C(C)C(=O)OCCC(F)(F)C(F)(F)C(F)(F)C(F)(F)C(F)(F)C(F)(F)C(F)(F)C(F)(F)C(F)(F)C(F)(F)F | 45 to 50
16 | CCCCC1C(=O)N(c2ccccc2)N(c2ccc(O)cc2)C1=O (stereo not drawn) | 124
17 | Nc1ccc(Oc2c(Cl)cccc2Cl)nc1 | 120 to 122
18 | CC(C)NCC(O)COc1ccc(CCOCC2CC2)cc1 (stereo not drawn) | 71
19 | O=C(O)CCn1cncn1 | 177 to 179
20 | O=C1C=C(c2ccccc2)CC1 | -23
21 | CC(=O)c1ccnc(Cl)c1 | 36.5 to 39
22 | COC(=O)c1ccc(Oc2cc(Cl)cc(Cl)c2)o1 | 86 to 89
23 | Cc1ccc(Cl)c(O)c1 | 46
24 | OCc1csc(N2CCOCC2)n1 | 118 to 120
25 | CC12CC(c3ccccc3)C([N+](=O)[O-])C(O1)c1ccccc1N2 (stereo not drawn) | 193 to 194
26 | CC1CCC2C(C)C3C(CC4C5CC=C6CC(O)CCC6(C)C5CCC43C)N2C1 (stereo not drawn) | 218

Row | SMILES | melting point [°C]
27 | Oc1cccc(S)c1 | 16.5
28 | Cc1ccc2sc(C=O)cc2c1 | 98 to 99
29 | COc1cc(N)c2c(c1N)C(=O)c1ccccc1C2=O | 242
30 | O=C1CN2CCOC2(c2ccccc2F)c2cc(Br)ccc2N1 (stereo not drawn) | 185
31 | CN1CCC23c4c5ccc(OCc6ccccc6)c4OC2C(O)C=CC3C1C5 (stereo not drawn) | 132
32 | CCOC(=O)c1cc2cccnc2s1 | 59 to 60
33 | N#Cc1ccc(OCCN2CCOCC2)cc1 | 87 to 90
34 | CC(=O)c1ccc(-c2ccc(Br)cc2)cc1 | 126
35 | COc1ccc(S(=O)(=O)c2coc(S(N)(=O)=O)c2)cc1 | 118
36 | CC(=O)N[C@@H](Cc1ccccc1)C(=O)N[C@@H](Cc1cc(I)c(O)c(I)c1)C(=O)O | 219 to 221
37 | CCCCNc1cc(=O)oc2ccccc12 | 118
38 | Oc1ccc(Br)c(F)c1 | 71.5 to 72.5
39 | CC(=O)Nc1ccc(Cl)c(N)c1 | 168 to 172
40 | C[Si](C)(C)O[Si](C)(C)O[Si](C)(C)O[Si](C)(C)O[Si](C)(C)O[Si](C)(C)O[Si](C)(C)C | -78
41 | c1ccc2cc(Nc3ccc(Nc4ccc5ccccc5c4)cc3)ccc2c1 | 235
42 | O=C(Nc1ccccc1)c1cccnc1 | 120
43 | O=Cc1ccc(-c2ccccc2Cl)o1 | 75 to 78
44 | O=C(Nc1ccccc1SC(=O)c1ccccc1)c1ccccc1 | 152
45 | C#CC(C)OC(=O)Nc1cccc(Cl)c1 (stereo not drawn) | 45.5
46 | COc1ccc2c(CBr)cc(=O)oc2c1 | 212 to 217
47 | CCOC(=O)[C@@H]1CC=CC[C@@H]1N (relative stereo) | 99 to 103
48 | CC(=O)CCc1oc2ccc([N+](=O)[O-])cc2c1-c1ccc(C)o1 | 124
49 | CC(C)=C1OC(=O)N(c2cc(OC3CCCC3)c(Cl)cc2F)C1=O | 104
50 | Nc1ncnc(Nc2ccccc2)n1 | 236
51 | O=C(Oc1c(F)c(F)c(F)c(F)c1F)c1ccc(OC2CCOCC2)nc1 | 114 to 118
52 | CCOC(=O)c1cc(-c2cccs2)nn1C | 72 to 73

Row | SMILES | melting point [°C]
53 | Cn1c2cc(N3CCCC3)cc(-c3ccccc3)c2c(=O)n1-c1ccccc1 | 159
54 | CCOC(=O)C(=O)C(C#N)C(=O)OCC (stereo not drawn) | 88 to 90
55 | O[Si](O)(c1ccccc1)c1ccccc1 | 202
56 | COc1ccc(CN)c(F)c1F | 34
57 | C1CC12CC2 | -135
58 | O=C(NC(CO)Cc1ccccc1)OCc1ccccc1 (stereo not drawn) | 94
59 | FC(F)(F)c1ccc(=S)[nH]c1 | 159 to 160
60 | O=C(CCC(=O)Oc1ccccc1)Oc1ccccc1 | 121
61 | Cc1onc(-c2ccccc2)c1N=C=O | 39 to 40
62 | O=C1CCC(c2ccc(NC(=O)Nc3ccccc3)cc2)=NN1 | 335 to 338
63 | O=C(O)[C@@H]1CCCC[C@H]1C(=O)c1ccc(Cl)cc1 (relative stereo) | 157 to 161
64 | C=CCC(CC)(CC)C(N)=O | 75
65 | NC(=O)Nc1ccc(C2=NNC(=O)CC2)cc1 | 215 to 218
66 | CCOC(=O)c1c(SC)nn(C(N)=O)c1N | 155
67 | CCCCCCCCCCCCC#CC#CCO | 57 to 59
68 | Clc1cc(Cl)c2nsnc2c1Cl | 122
69 | COc1cc(N=C=O)cc(OC)c1OC | 40
70 | Cc1nn(C)c(C)c1C(=O)O | 218 to 219
71 | Brc1cccc(Br)c1Br | 87.5
72 | COC(=O)c1ccc(C(=O)OC)c(C(=O)OC)c1 | 39
73 | O=C(CBr)c1ccco1 | 34
74 | Cc1cc(C(F)(F)F)n2nc(N)c(/N=N/c3cccc4ccccc34)c2n1 | 236
75 | COc1ccc([N+](=O)[O-])cn1 | 108
76 | Cc1ccc(Cl)c(CO)c1F | 57
77 | N#Cc1cc(C(F)(F)F)ccc1Cl | 38.5
78 | CC1CCC(=O)C1=O (stereo not drawn) | 105 to 110

Row | SMILES | melting point [°C]
79 | CCCCCCCC(=O)CCC | 4.5
80 | Nc1sccc1-c1nc2ccccc2s1 | 138 to 140
81 | C/C(CCc1oc2ccc([N+](=O)[O-])cc2c1-c1ccc(C)o1)=N/O | 160 to 161
82 | c1ccc(C2Nc3ccccc3C2c2ccccc2)cc1 (stereo not drawn) | 173
83 | O=[N+]([O-])c1ccccc1C(F)(F)F | 32.5
84 | O=C(Nc1cccnc1)C(F)(F)C(F)(F)C(F)(F)C(F)(F)C(F)(F)C(F)(F)C(F)(F)C(F)(F)F | 145
85 | CC(=O)OCC(=O)C1CCC2C3CCC4CC(O)CCC4(C)C3C(=O)CC12C (stereo not drawn) | 176
86 | COc1ccc(-c2nnc3n2NC(c2ccccc2O)S3)cc1 (stereo not drawn) | 220
87 | CC(C)(C)OC(=O)N1CCSCC1C(=O)O (stereo not drawn) | 145 to 147
88 | BrCc1cccc2nsnc12 | 89 to 92
89 | CCN(CC)c1nc(Cl)nc(N(CC)CC)n1 | 27
90 | Cc1c(Cl)cccc1C#N | 21.5
91 | CCOC(=O)CCC(C)C1CCC2C3C(=O)CC4CC(=O)CCC4(C)C3CC(=O)C12C (stereo not drawn) | 222
92 | CCOC(=O)c1ccc(N=C=S)cc1 | 57
93 | Clc1cccc(Cl)c1CBr | 56
94 | O=C(c1ccc(Br)cc1)[C@H]1CCCC[C@H]1C(=O)O (relative stereo) | 171 to 175
95 | CC(=O)C1CCC2C3CCC4=CC(=O)CCC4(C)C3C(=O)CC12C (stereo not drawn) | 172
96 | CC(=O)OCCc1ccc(CCOC(C)=O)cc1 | 65
97 | COC1CCCCCCCCCCC1 | 8
98 | c1ccc2c(C3CCNCC3)c[nH]c2c1 | 222 to 223
99 | Cc1cc2c(o1)-c1c(oc3ccc(Cl)cc13)CCC2(C)c1ccccc1 (stereo not drawn) | 128
100 | CNC(=O)ON=C1C(Cl)C2CC(C#N)C1C2 (stereo not drawn) | 144
101 | N#C/C(=N\Nc1ccccc1[N+](=O)[O-])c1nc2ccccc2[nH]1 | 270
102 | O=C(OCc1ccccc1)c1ccccc1O | 19
103 | O=C(O)c1ccc2c(c1)OCCOCCOCCOCCO2 | 188 to 191
104 | Cc1c2ccccc2nc2ccccc12 | 118

Row | SMILES | melting point [°C]
105 | N#CC(C#N)=C1C(=O)NN(c2ccccc2)C1=O | 289
106 | CC(=O)/N=c1\sc(C(C)=O)nn1-c1ccc(F)cc1 | 157
107 | CC=CC=CC | -79
108 | Cc1cccc(Cn2nc(C(C)(C)C)cc2C(=O)NN)c1 | 102 to 104
109 | COC1C(C2COC3(CCCCC3)O2)OC2OC3(CCCCC3)OC21 (stereo not drawn) | 35 to 38
110 | Cc1noc(-c2ccccc2C=O)n1 | 66 to 68
111 | Cn1ccc(S(=O)(=O)Cl)n1 | 36 to 39
112 | NC(=O)c1cccc(C(F)(F)F)c1F | 96
113 | N#CC(c1ccc(Cl)cc1)N1CCOCC1 (stereo not drawn) | 76 to 77
114 | CN(C)c1ccc2cc3ccc(N(C)C)cc3nc2c1 | 165
115 | CC(=O)Nc1ccc(C(F)(F)F)cc1Br | 144 to 146
116 | N#CCc1ccc(OCc2ccccc2)c(OCc2ccccc2)c1 | 80
117 | CC(C)(C)[Si](Cl)(Cl)Cl | 98
118 | CCOC(=O)c1c[nH]nc1C | 136 to 138
119 | CCOC(=O)c1c(-c2ccco2)csc1N | 86 to 89
120 | CC(C(=O)O)c1ccc(CBr)cc1 (stereo not drawn) | 123 to 128
121 | CC12CCC(C(O)=C(Br)C1=O)C2(C)C (stereo not drawn) | 188
122 | O=[N+]([O-])c1ccc(C(O)CNCc2ccccc2)cc1 (stereo not drawn) | 133 to 134
123 | COc1cc(N)c(C(=O)O)cc1OC | 155 to 160
124 | C=C1C(=O)C23C(OC)CC4C5(C)CCCC4(COC5)C2C(O)CC1C3O (stereo not drawn) | 288
125 | O=C(Cl)c1scc2c1OCCO2 | 75 to 76
126 | COC(=O)c1cccc([N+](=O)[O-])c1NC(C)=O | 120 to 121
127 | Sc1ccccc1 | -14.9
128 | Brc1cc2c(cc1Br)Oc1cc(Br)c(Br)cc1O2 | 334
